# Measurements reported in US9783537B2, “3-(4-ethylnylphenyl) pyridopyrimidinone compounds and process for preparation thereof useful as potential anticancer agents” (Council of Scientific & Industrial Research, priority 2013, dated 2017).
row,melting point [°C],SMILES
1,123 to 124,"C#Cc1ccc(-n2c(/C=C/c3ccc(F)cc3)nc3ncccc3c2=O)cc1 [4a, (E)-3-(4-Ethynylphenyl)-2-(4-fluorostyryl)pyrido[2,3-d]pyrimidin-4(3H)-one]"
2,128 to 129,"C#Cc1ccc(-n2c(/C=C/c3cccc(OC(F)(F)F)c3)nc3ncccc3c2=O)cc1 [4d, (E)-3-(4-Ethynylphenyl)-2-(3-(trifluoromethoxy)styryl)pyrido[2,3-d]pyrimidin-4(3H)-one]"
3,123 to 124,"C#Cc1ccc(-n2c(/C=C/c3ccc(F)c(F)c3)nc3ncccc3c2=O)cc1 [4f, (E)-2-(3,4-Difluorostyryl)-3-(4-ethynylphenyl)pyrido[2,3-d]pyrimidin-4(3H)-one]"
4,124 to 125,"C#Cc1ccc(-n2c(/C=C/c3ccc(OC)c(F)c3)nc3ncccc3c2=O)cc1 [4h, (E)-3-(4-Ethynylphenyl)-2-(3-fluoro-4-methoxystyryl)pyrido[2,3-d]pyrimidin-4(3H)-one]"
5,123 to 124,"C#Cc1ccc(-n2c(/C=C/c3ccc(O)c(OC)c3)nc3ncccc3c2=O)cc1 [4k, (E)-3-(4-Ethynylphenyl)-2-(4-hydroxy-3-methoxystyryl)pyrido[2,3-d]pyrimidin-4(3H)-one]"
6,123 to 124,"C#Cc1ccc(-n2c(/C=C/c3cc(OC)cc(OC)c3)nc3ncccc3c2=O)cc1 [4m, (E)-2-(3,5-Dimethoxystyryl)-3-(4-ethynylphenyl)pyrido[2,3-d]pyrimidin-4(3H)-one]"
7,127 to 128,"C#Cc1ccc(-n2c(/C=C/c3cc(OC)ccc3OC)nc3ncccc3c2=O)cc1 [4n, (E)-2-(2,5-Dimethoxystyryl)-3-(4-ethynylphenyl)pyrido[2,3-d]pyrimidin-4(3H)-one]"
8,125 to 126,"C#Cc1ccc(-n2c(/C=C/c3cccc4c3OCO4)nc3ncccc3c2=O)cc1 [4o, (E)-2-(2-(benzo[d][1,3]dioxol-4-yl)vinyl)-3-(4-ethynylphenyl)pyrido[2,3-d]pyrimidin-4(3H)-one]"
9,124 to 125,"C#Cc1ccc(-n2c(/C=C/c3c(OC)cc(OC)cc3OC)nc3ncccc3c2=O)cc1 [4r, (E)-3-(4-Ethynylphenyl)-2-(2,4,6-trimethoxystyryl)pyrido[2,3-d]pyrimidin-4(3H)-one]"
10,123 to 124,"C#Cc1ccc(-n2c(/C=C/c3ccc4[nH]ccc4c3)nc3ncccc3c2=O)cc1 [4u, (E)-2-(2-(1H-Indol-5-yl)vinyl)-3-(4-ethynylphenyl)pyrido[2,3-d]pyrimidin-4(3H)-one]"
11,114 to 115,"C#Cc1ccc(-n2c(/C=C/c3c[nH]c4ccc(OC)cc34)nc3ncccc3c2=O)cc1 [4v, (E)-3-(4-ethynylphenyl)-2-(2-(5-methoxy-1H-indol-3-yl)vinyl)pyrido[2,3-d]pyrimidin-4(3H)-one]"
